Experimental findings from ChEMBL document CHEMBL4411344, “Synthesis and biological evaluation of new long-chain squaramides as anti-chagasic agents in the BALB/c mouse model” (Bioorg Med Chem, 2019) are described below.

pIC50: −log10 of the molar value. Calls of active or inactive are those of the source. The calls are words filed in the database; no cut-off is given here.

Data set [1] is described as follows: Cardiotoxicity in Balb/c mouse infected with Trypanosoma cruzi MHOM/Pe/2011/Arequipa DTU 5 trypomastigotes assessed as decrease in ratio of creatine kinase in muscle to brain at 20 mg/kg, po once daily for 5 consecutive days starting from day 75 post infection measured on day 81 post infection relative to control. The conditions noted are these: in vivo. The format is toxicity, organism-based.

Data set [2] in a line: Hepatotoxicity in Balb/c mouse infected with Trypanosoma cruzi MHOM/Pe/2011/Arequipa DTU 5 trypomastigotes assessed as increase in total bilirubin level at 20 mg/kg, po once daily for 5 consecutive days starting from day 75 post infection measured on day 127 post infection relative to control. The class given is toxicity, organism-based. As to conditions: in vivo.
The nature of data set [3]: Hepatotoxicity in Balb/c mouse infected with Trypanosoma cruzi MHOM/Pe/2011/Arequipa DTU 5 trypomastigotes assessed as increase in total bilirubin level at 20 mg/kg, po once daily for 5 consecutive days starting from day 10 post infection measured on day 127 post infection by biochemical analysis relative to control. The format is toxicity, organism-based. As to conditions: in vivo.

Data set [4] is described as follows: Hepatotoxicity in Balb/c mouse infected with Trypanosoma cruzi MHOM/Pe/2011/Arequipa DTU 5 trypomastigotes assessed as increase in alkaline phosphatase level at 20 mg/kg, po once daily for 5 consecutive days starting from day 75 post infection measured on day 127 post infection relative to control. The class given is toxicity, organism-based. The conditions noted are these: in vivo.

Data set [5] can be described thus: Hepatotoxicity in Balb/c mouse infected with Trypanosoma cruzi MHOM/Pe/2011/Arequipa DTU 5 trypomastigotes assessed as increase in total bilirubin level at 20 mg/kg, po once daily for 5 consecutive days starting from day 10 post infection measured on day 16 post infection relative to control. The class given is toxicity, organism-based. As to conditions: in vivo.

The nature of data set [6]: Cardiotoxicity in Balb/c mouse infected with Trypanosoma cruzi MHOM/Pe/2011/Arequipa DTU 5 trypomastigotes assessed as decrease in serum LDH level at 20 mg/kg, po once daily for 5 consecutive days starting from day 75 post infection measured on day 81 post infection relative to control. As to conditions: in vivo. The format is toxicity, organism-based.
Data set [7] in a line: Hepatotoxicity in Balb/c mouse infected with Trypanosoma cruzi MHOM/Pe/2011/Arequipa DTU 5 trypomastigotes assessed as increase in ratio of serum AST to GOT level at 20 mg/kg, po once daily for 5 consecutive days starting from day 75 post infection measured on day 127 post infection relative to control. The format is toxicity, organism-based. As to conditions: in vivo.
A short description of data set [8]: Hepatotoxicity in Balb/c mouse infected with Trypanosoma cruzi MHOM/Pe/2011/Arequipa DTU 5 trypomastigotes assessed as increase in serum ALT to GPT level at 20 mg/kg, po once daily for 5 consecutive days starting from day 10 post infection measured on day 16 post infection relative to control. As to conditions: in vivo. The format is toxicity, organism-based.

Data set [9] relates to Trypanosoma cruzi. Kind of data set: Antitrypanosomal activity against Trypanosoma cruzi MHOM/Pe/2011/Arequipa DTU 5 epimastigotes assessed as effect on parasite glycolytic pathway by measuring increase in acetate excretion at IC25 after 72 hrs by 1H NMR method. The format is functional, organism-based.
Data set [10] deals with Trypanosoma cruzi. Kind of data set: Antitrypanosomal activity against Trypanosoma cruzi MHOM/Pe/2011/Arequipa DTU 5 epimastigotes assessed as effect on parasite glycolytic pathway by measuring increase in D-lactate excretion at IC25 after 72 hrs by 1H NMR method. The format is functional, organism-based.
The test system of data set [11] is Trypanosoma cruzi. The data set can be described thus: Antitrypanosomal activity against Trypanosoma cruzi MHOM/Pe/2011/Arequipa DTU 5 epimastigotes assessed as effect on parasite glycolytic pathway by measuring increase in L-alanine excretion at IC25 after 72 hrs by 1H NMR method. The class given is functional, organism-based.
In data set [12] the test system is Trypanosoma cruzi. Kind of data set: Trypanocidal activity against Trypanosoma cruzi MHOM/Pe/2011/Arequipa DTU 5 amastigotes infected in African green monkey Vero cells assessed as infected cells at 50 uM after 72 hrs by Giemsa-staining based assay. The format is functional.
Data set [13] is described as follows: Hepatotoxicity in Balb/c mouse infected with Trypanosoma cruzi MHOM/Pe/2011/Arequipa DTU 5 trypomastigotes assessed as change in ratio of serum AST to GOT level at 20 mg/kg, po once daily for 5 consecutive days starting from day 10 post infection measured on day 127 post infection by biochemical analysis (reference value: 179 U/L). The class given is toxicity, organism-based. The conditions noted are these: in vivo.

The test system of data set [14] is Trypanosoma cruzi. The data set can be described thus: Trypanocidal activity against Trypanosoma cruzi TINF/CH/1956/Tulahuen DTU 6 trypomastigotes derived from infected Balb/c mouse after 72 hrs by resazurin dye based assay. The format is functional, organism-based. The conditions noted are these: TINF/CH/1956/Tulahuen DTU 6, 72 h.
The subject of data set [15] is Trypanosoma cruzi. Kind of data set: Antitrypanosomal activity against Trypanosoma cruzi MHOM/Pe/2011/Arequipa DTU 5 epimastigotes assessed as effect on parasite glycolytic pathway by measuring increase in pyruvate excretion at IC25 after 72 hrs by 1H NMR method. The class given is functional, organism-based.
A short description of data set [16]: Inhibition of Trypanosoma cruzi MHOM/Pe/2011/Arequipa DTU 5 epimastigotes Fe-SOD by UV-Visible spectrophotometric method.
Data set [17] in a line: Selectivity index, ratio of IC50 for African green monkey Vero cells to IC50 for Trypanosoma cruzi IRHOD/CO/2008/SN3 DTU 1 amastigotes infected in African green monkey Vero cells. The class given is toxicity. The conditions noted are these: read-out: Ratio IC50.
In data set [18] the test system is Trypanosoma cruzi. The data set can be described thus: Antitrypanosomal activity against Trypanosoma cruzi MHOM/Pe/2011/Arequipa DTU 5 epimastigotes assessed as effect on parasite glycolytic pathway by measuring increase in ethanol excretion at IC25 after 72 hrs by 1H NMR method. The format is functional.
Data set [19] deals with Trypanosoma cruzi. Kind of data set: Trypanocidal activity against Trypanosoma cruzi MHOM/Pe/2011/Arequipa DTU 5 amastigotes infected in African green monkey Vero cells assessed as reduction in infected cells at <= 12 uM after 72 hrs by Giemsa-staining based assay. The format is functional, organism-based.
For data set [20], the system named is Trypanosoma cruzi. Kind of data set: Antitrypanosomal activity against Trypanosoma cruzi MHOM/Pe/2011/Arequipa DTU 5 epimastigotes assessed as effect on parasite glycolytic pathway by measuring decrease in ethanol excretion at IC25 after 72 hrs by 1H NMR method. The format is functional, organism-based.
Data set [21] has as its system Trypanosoma cruzi. The data set can be described thus: Antitrypanosomal activity against Trypanosoma cruzi MHOM/Pe/2011/Arequipa DTU 5 epimastigotes assessed as effect on parasite glycolytic pathway by measuring decrease in D-lactate excretion at IC25 after 72 hrs by 1H NMR method. The class given is functional, organism-based.
Data set [22] concerns Trypanosoma cruzi. Kind of data set: Antitrypanosomal activity against Trypanosoma cruzi MHOM/Pe/2011/Arequipa DTU 5 epimastigotes assessed as effect on parasite glycolytic pathway by measuring decrease in pyruvate excretion at IC25 after 72 hrs by 1H NMR method. The format is functional. On the set-up: scale not given: the % may be the effect or the level left.
The test system of data set [23] is Trypanosoma cruzi. The data set can be described thus: Antitrypanosomal activity against Trypanosoma cruzi MHOM/Pe/2011/Arequipa DTU 5 epimastigotes assessed as effect on parasite glycolytic pathway by measuring decrease in L-alanine excretion at IC25 after 72 hrs by 1H NMR method. The format is functional, organism-based.
Data set [24] can be described thus: Nephrotoxicity in Balb/c mouse infected with Trypanosoma cruzi MHOM/Pe/2011/Arequipa DTU 5 trypomastigotes assessed as decrease in serum uric acid level at 20 mg/kg, po once daily for 5 consecutive days starting from day 10 post infection measured on day 127 post infection relative to control. The format is toxicity, organism-based. As to conditions: in vivo.

Data set [25] can be described thus: Hepatotoxicity in Balb/c mouse infected with Trypanosoma cruzi MHOM/Pe/2011/Arequipa DTU 5 trypomastigotes assessed as change in total bilirubin level at 20 mg/kg, po once daily for 5 consecutive days starting from day 75 post infection measured on day 127 post infection (reference value: 0.23 mg/dl). The class given is toxicity, organism-based. As to conditions: in vivo.

The test system of data set [26] is Trypanosoma cruzi. The data set can be described thus: Antitrypanosomal activity against Trypanosoma cruzi MHOM/Pe/2011/Arequipa DTU 5 epimastigotes assessed as effect on parasite glycolytic pathway by measuring decrease in acetate excretion at IC25 after 72 hrs by 1H NMR method. The format is functional, organism-based.

As to `O=C(Cn1ccnc1[N+](=O)[O-])NCc1ccccc1` [BENZNIDAZOLE], the Activity in [1] was 10 to 20 U/L; in [2], 20%; in data set [3] it was 10%; in [4] it was 20 to 30 U/L; in data set [5] it was 20 to 30 mg/dL; in data set [6], 20 to 30 U/L. In addition, the Activity in data set [7] is 10 to 20 U/L; in [8], above 40 U/L.

With `CCCCCCCCCCCCCCCCNc1c(N(C)CCCN(C)C)c(=O)c1=O`, the outcome in the data set on Trypanosoma cruzi [9], in the data set with Trypanosoma cruzi [10], with Trypanosoma cruzi [11] and in the data set with Trypanosoma cruzi [15] was Active. Also, the Activity in data set [2] turned out to be 10%; in the data set with Trypanosoma cruzi [12] it was 0; in data set [13], 179 U/L; in the data set with Trypanosoma cruzi [18], 51%. The pIC50 in the data set on Trypanosoma cruzi [14] was 5.33; in data set [16], 4.16. Further, the selectivity ratio in data set [17] came to 35.9.

As to `CCCCCCNc1c(N(C)CCCN(C)C)c(=O)c1=O`, the result in the data set on Trypanosoma cruzi [19] was inactive. The outcome in the data set on Trypanosoma cruzi [20], in the data set on Trypanosoma cruzi [21], in the data set with Trypanosoma cruzi [23] and with Trypanosoma cruzi [26] was Active. In addition, the Activity in the data set on Trypanosoma cruzi [22] was 30%; in data set [24], 10 to 20 mg/dL; in data set [25], 0.2 mg/dL. For the same molecule, the pIC50 is 4.76 with Trypanosoma cruzi [14] and 4.60 in data set [16]. In addition, in data set [17], the selectivity ratio came to 18.
